Data on 19 compounds can be found in patent US20250101028A1, “HETEROCYCLIC COMPOUNDS, COMPOSITIONS THEREOF, AND METHODS OF TREATMENT THEREWITH” (BeiGene, Ltd., priority 2022, published 2025).

Bounds are passed on as bounds.

In general, IC50 refers to the midpoint of a concentration-inhibition curve. Low values mean higher potency, high ones lower potency.

T1 sequence (P01116 1-169 isoform P01116-2 G12V): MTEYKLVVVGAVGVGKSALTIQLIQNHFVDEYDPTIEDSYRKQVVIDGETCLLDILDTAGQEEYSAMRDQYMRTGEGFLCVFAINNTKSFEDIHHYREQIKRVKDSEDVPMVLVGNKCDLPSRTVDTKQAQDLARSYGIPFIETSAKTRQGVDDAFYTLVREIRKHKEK

This assay has as its target T1, GST-tagged GDP-loaded KRAS G12V (amino acids 1-169) (Homo sapiens, UniProt P01116, G12V).
T1 construct: GST-tagged GDP-loaded KRAS G12V (amino acids 1-169); made in house; host or cells: E. coli
Kind of assay: KRAS G12V probe displacement assay (TR-FRET). It is filed as binding. To be noted: displacement of biotinylated probe 2 from GDP-loaded KRAS G12V. How it is done:
KRAS WT and KRAS G12V Probe Displacement Assay
This assay was used to identify compounds which bind to GDP-loaded KRAS protein and are able to displace a biotinylated probe occupying the KRAS binding site. GST-tagged GDP-loaded WT KRAS (amino acids 1-169) and GST-tagged GDP-loaded KRAS G12V (amino acids 1-169) were expressed in E. coli and purified in house. All protein and reaction solutions were prepared in assay buffer containing 50 mM HEPES pH7.5, 50 mM NaCl, 1 mM MgCl2, 1 mM TCEP, 0.01% BSA, and 0.008% Brij-35. Purified WT KRAS (3 nM final concentration) or KRAS G12V protein (2 nM final concentration) was incubated with a 3-fold serially diluted compound in the assay plate (384 well microplate, black, Corning). Plates are incubated at 24° C. for 1 hr. Following the incubation, biotinylated probe 1 (60 nM final assay concentration) for WT KRAS and biotinylated probe 2 (2.5 nM final assay concentration) for KRAS G12V was added to the assay plate, respectively. After 1 hr incubation at 24° C., Mab Anti-GST-Tb cryptate (Cisbio) and Streptavidin-XL665 (Cisbio) were added and further incubated at 24° C. for another 1 hr. The TR-FRET signals (ex337 nm, em665 nm/620 nm) were read on BMG PHERAstar FSX instrument. The inhibition percentage of KRAS protein binding with biotinylated probe in presence of increasing concentrations of compounds was calculated based on the ratio of fluorescence at 665 nm to that at 620 nm. The IC50 value of each compound was calculated from fitting the data to the four-parameter logistic model by Dotmatics.
For orientation: TR-FRET usually uses a lanthanide donor and a delayed reading to cut background.
For `Nc1nc2c(-c3c(Cl)cc4c(NC56CC(C5)C6)nc(OC[C@@]56CCCN5C[C@H](F)C6)nc4c3F)ccc(F)c2s1` [Example 32, 4-(4-(bicyclo[1.1.1]pentan-1-ylamino)-6-chloro-8-fluoro-2-(((2R,7aS)-2-fluorotetrahydro-1H-pyrrolizin-7a(5H)-yl)methoxy)quinazolin-7-yl)-7-fluorobenzo[d]thiazol-2-amine], the IC50 came out at 21 nM. Next, `Cc1cc(N)nc(-c2c(Cl)cc3c(N4CCOC[C@@H]4C)nc(OC[C@@]45CCCN4C[C@H](F)C5)nc3c2F)c1C(F)(F)F` [Example 105, 6-(6-chloro-8-fluoro-2-(((2R,7aS)-2-fluorotetrahydro-1H-pyrrolizin-7a(5H)-yl)methoxy)-4-((S)-3-methylmorpholino)quinazolin-7-yl)-4-methyl-5-(trifluoromethyl)pyridin-2-amine]: 25 nM. Consider `Nc1nc2c(-c3c(C(F)(F)F)cc4c(N5CCCC(CO)CC5)nc(OC[C@@]56CCCN5C[C@H](F)C6)nc4c3F)ccc(F)c2s1` (stereo partly drawn) [Example 85, (1-(7-(2-amino-7-fluorobenzo[d]thiazol-4-yl)-8-fluoro-2-(((2R,7aS)-2-fluorotetrahydro-1H-pyrrolizin-7a(5H)-yl)methoxy)-6-(trifluoromethyl)quinazolin-4-yl)azepan-4-yl)methanol], for which the half-maximal inhibitory concentration (IC50) is 2.3 nM. Compared with the last compound, the IC50 is about 11-fold lower.

Turning to `Cc1cc(N)nc(-c2c(Cl)cc3c(N4CC[C@@H](C#N)C[C@@H]4C)nc(OC[C@@]45CCCN4C[C@H](F)C5)nc3c2F)c1C(F)(F)F` (mixture of isomers) [Example 104, 1-(7-(6-amino-4-methyl-3-(trifluoromethyl)pyridin-2-yl)-6-chloro-8-fluoro-2-(((2R,7aS)-2-fluorotetrahydro-1H-pyrrolizin-7a(5H)-yl)methoxy)quinazolin-4-yl)-trans-2-methylpiperidine-4-carbonitrile], the IC50 came out at 7 nM. Under `CC1(C#N)CN(c2nc(OC[C@@]34CCCN3C[C@H](F)C4)nc3c(F)c(-c4ccc(F)c5sc(N)nc45)c(C(F)(F)F)cc23)C1` [Example 42, 1-(7-(2-amino-7-fluorobenzo[d]thiazol-4-yl)-8-fluoro-2-(((2R,7aS)-2-fluorotetrahydro-1H-pyrrolizin-7a(5H)-yl)methoxy)-6-(trifluoromethyl)quinazolin-4-yl)-3-methylazetidine-3-carbonitrile] stands 70 nM; under `N#CCN1CC2(CCN(c3nc(OC[C@@]45CCCN4C[C@H](F)C5)nc4c(F)c(-c5ccc(F)c6sc(N)nc56)c(C(F)(F)F)cc34)CC2)OC1=O` [Example 89, 2-(8-(7-(2-amino-7-fluorobenzo[d]thiazol-4-yl)-8-fluoro-2-(((2R,7aS)-2-fluorotetrahydro-1H-pyrrolizin-7a(5H)-yl)methoxy)-6-(trifluoromethyl)quinazolin-4-yl)-2-oxo-1-oxa-3,8-diazaspiro[4.5]decan-3-yl)acetonitrile], 2.4 nM. Next, `C[C@]1(O)CCCN(c2nc(OC[C@@]34CCCN3C[C@H](F)C4)nc3c(F)c(-c4ccc(F)c5sc(N)nc45)c(C(F)(F)F)cc23)C1` [Example 79, (3S)-1-(7-(2-amino-7-fluorobenzo[d]thiazol-4-yl)-8-fluoro-2-(((2R,7aS)-2-fluorotetrahydro-1H-pyrrolizin-7a(5H)-yl)methoxy)-6-(trifluoromethyl)quinazolin-4-yl)-3-methylpiperidin-3-ol]: 28 nM; `Nc1nc2c(-c3c(C(F)(F)F)cc4c(N5CCC6(CCNC6=O)CC5)nc(OC[C@@]56CCCN5C[C@H](F)C6)nc4c3F)ccc(F)c2s1` [Example 95, 8-(7-(2-amino-7-fluorobenzo[d]thiazol-4-yl)-8-fluoro-2-(((2R,7aS)-2-fluorotetrahydro-1H-pyrrolizin-7a(5H)-yl)methoxy)-6-(trifluoromethyl)quinazolin-4-yl)-2,8-diazaspiro[4.5]decan-1-one]: 2.7 nM; `Nc1cc(Cl)c(C(F)(F)F)c(-c2ncc3c(N4CCOCC4)nc(OC[C@@]45CCCN4C[C@H](F)C5)nc3c2F)c1` [Example 113, 3-chloro-5-(8-fluoro-2-(((2R,7aS)-2-fluorotetrahydro-1H-pyrrolizin-7a(5H)-yl)methoxy)-4-morpholinopyrido[4,3-d]pyrimidin-7-yl)-4-(trifluoromethyl)aniline]: 11 nM. For `CC1(C#N)CCN(c2nc(OC[C@@]34CCCN3C[C@H](F)C4)nc3c(F)c(-c4ccc(F)c5sc(N)nc45)c(C(F)(F)F)cc23)CC1` [Example 69, 1-(7-(2-amino-7-fluorobenzo[d]thiazol-4-yl)-8-fluoro-2-(((2R,7aS)-2-fluorotetrahydro-1H-pyrrolizin-7a(5H)-yl)methoxy)-6-(trifluoromethyl)quinazolin-4-yl)-4-methylpiperidine-4-carbonitrile], the IC50 is 17 nM. This IC50 lies about 1.5-fold higher than the previous one. `Nc1nc2c(-c3c(C(F)(F)F)cc4c(N5CC[C@H](O)C5)nc(OC[C@@]56CCCN5C[C@H](F)C6)nc4c3F)ccc(F)c2s1` [Example 64, (3S)-1-(7-(2-amino-7-fluorobenzo[d]thiazol-4-yl)-8-fluoro-2-(((2R,7aS)-2-fluorotetrahydro-1H-pyrrolizin-7a(5H)-yl)methoxy)-6-(trifluoromethyl)quinazolin-4-yl)pyrrolidin-3-ol] returned an IC50 of 4.3 nM. `C[C@H]1COCCN1c1nc(OC[C@@]23CCCN2C[C@H](F)C3)nc2c(F)c(-c3cc(N)cc(Cl)c3C(F)(F)F)ncc12` [Example 114, 3-chloro-5-(8-fluoro-2-(((2R,7aS)-2-fluorotetrahydro-1H-pyrrolizin-7a(5H)-yl)methoxy)-4-((S)-3-methylmorpholino)pyrido[4,3-d]pyrimidin-7-yl)-4-(trifluoromethyl)aniline]: the IC50 worked out at 9.2 nM. Next, `Nc1nc2c(-c3c(Cl)cc4c(N[C@H]5[C@@H]6COC[C@@H]65)nc(OC[C@@]56CCCN5C[C@H](F)C6)nc4c3F)ccc(F)c2s1` [Example 29, 4-(4-(((1R,5S,6r)-3-oxabicyclo[3.1.0]hexan-6-yl)amino)-6-chloro-8-fluoro-2-(((2R,7aS)-2-fluorotetrahydro-1H-pyrrolizin-7a(5H)-yl)methoxy)quinazolin-7-yl)-7-fluorobenzo[d]thiazol-2-amine]: 15 nM. Next, `C[C@@]1(O)CCCN(c2nc(OC[C@@]34CCCN3C[C@H](F)C4)nc3c(F)c(-c4ccc(F)c5sc(N)nc45)c(C(F)(F)F)cc23)C1` [Example 80, (3R)-1-(7-(2-amino-7-fluorobenzo[d]thiazol-4-yl)-8-fluoro-2-(((2R,7aS)-2-fluorotetrahydro-1H-pyrrolizin-7a(5H)-yl)methoxy)-6-(trifluoromethyl)quinazolin-4-yl)-3-methylpiperidin-3-ol]: 17 nM. Next, `COc1cc(N)nc(-c2c(Cl)cc3c(N4CCC(C#N)CC4)nc(OC[C@@]45CCCN4C[C@H](F)C5)nc3c2F)c1C(F)(F)F` [Example 108, 1-(7-(6-amino-4-methoxy-3-(trifluoromethyl)pyridin-2-yl)-6-chloro-8-fluoro-2-(((2R,7aS)-2-fluorotetrahydro-1H-pyrrolizin-7a(5H)-yl)methoxy)quinazolin-4-yl)piperidine-4-carbonitrile]: greater than 1000 nM; `CC1(C)CCN1c1nc(OC[C@@]23CCCN2C[C@H](F)C3)nc2c(F)c(-c3ccc(F)c4sc(N)nc34)c(C(F)(F)F)cc12` [Example 36, 4-(4-(2,2-dimethylazetidin-1-yl)-8-fluoro-2-(((2R,7aS)-2-fluorotetrahydro-1H-pyrrolizin-7a(5H)-yl)methoxy)-6-(trifluoromethyl)quinazolin-7-yl)-7-fluorobenzo[d]thiazol-2-amine]: 19 nM. Compound `Nc1nc2c(-c3c(C(F)(F)F)cc4c(NC5CC6(COC6)C5)nc(OC[C@@]56CCCN5C[C@H](F)C6)nc4c3F)ccc(F)c2s1` [Example 23, 4-(4-((2-oxaspiro[3.3]heptan-6-yl)amino)-8-fluoro-2-(((2R,7aS)-2-fluorotetrahydro-1H-pyrrolizin-7a(5H)-yl)methoxy)-6-(trifluoromethyl)quinazolin-7-yl)-7-fluorobenzo[d]thiazol-2-amine] had an IC50 of 23 nM. Next, `CC1CN(c2nc(OC[C@@]34CCCN3C[C@H](F)C4)nc3c(F)c(-c4ccc(F)c5sc(N)nc45)c(C(F)(F)F)cc23)C1` [Example 34, 7-fluoro-4-(8-fluoro-2-(((2R,7aS)-2-fluorotetrahydro-1H-pyrrolizin-7a(5H)-yl)methoxy)-4-(3-methylazetidin-1-yl)-6-(trifluoromethyl)quinazolin-7-yl)benzo[d]thiazol-2-amine]: 52 nM; `Cc1cc(N)nc(-c2c(Cl)cc3c(N4CCC(C#N)CC4)nc(OC[C@@]45CCCN4C[C@H](F)C5)nc3c2F)c1C(F)(F)F` [Example 103, 1-(7-(6-amino-4-methyl-3-(trifluoromethyl)pyridin-2-yl)-6-chloro-8-fluoro-2-(((2R,7aS)-2-fluorotetrahydro-1H-pyrrolizin-7a(5H)-yl)methoxy)quinazolin-4-yl)piperidine-4-carbonitrile]: 11 nM.
